Converted amounts (≈) assume the structure as drawn. Where two headings read alike, the source gives them in different places.
How the values were obtained:
[1] = test system: Culex pipiens pallens fourth instar wiggler; assay: Killing effect on wiggler, WHO immersing method, LC50; format: in vivo; settings: for LC50: Culex pipiens pallens fourth instar wiggler, immersing method, mortality after 24 hours, 26±1° C.; for Relative toxicity: from wiggler LC50, Cypermethrin = 100
Experimental: The following pyrethrates were tested as representatives according to the method recommended by the World Health Organization (WHO) (Zongbing ZHANG, the assay of toxicity of insecticides, the Science Press, 1988), the commonly used testing breed, Culex pipiens pallens fourth instar wiggler is used as a subject for biological assay, test temperature: 26±1° C., humidity: 70±10%; immersing method: a solution of a certain amount the compound to be tested in acetone was mixed evenly with pure water in the gradually decreasing concentration of 500, 250, 100, 50, 25, 12.5, 6.25, 3.125, 1, 0.5, 0.25, 0.1, 0.05, 0.025, 0.01, 0.005, 0.0025, 0.0001 mg/L, and the mortality of wiggler after 24 hours was calculated and LC50 was calculated to preliminarily evaluate the insecticidal activity. The results were shown in Table I. Compound 1-5 are representative examples of the compound of formula (I) of the present invention: the compounds involved in preparation Example 1-5 were prepared;
At the same time, their relative toxicities were compared with those of Cypermethrin, and Deltamethrin.

[2] = test system: Aphis medicaginis kock; assay: Killing effect on aphids, immersion; format: in vivo; settings: aphids, after 24 hours
Experimental: The killing effect on aphids was tested using Compound 2 and 3, which are representative examples of the compound of formula (I) of the present invention, Compound 9 as a control example. Aphis medicaginis kock; test temperature: 26±1° C., humidity: 70±10%; test method: immersion; adult insects together with bean sprouts were immersed in a liquor in dimethyl sulfoxide for 5 seconds, after which the bean sprouts were heeled in a solid support. Each treatment was done in triplicate. The number of the killed insects was checked after 24 hours to calculate the mortality.

[3] = test system: Tetrangychus cinnabarinus; assay: Killing effect on Tetrangychus cinnabarinus, immersion; format: in vivo; settings: after 24 hours
Experimental: The killing effect on acarids was tested using Compound 2 and 3, which are representative examples of the compound of formula (I) of the present invention, Compound 9 as a control example. Tetrangychus cinnabarinus, test temperature: 26±1° C. humidity: 70±10%; test method: immersion; adult insects together with horsebean leaves were immersed in a liquor in dimethyl sulfoxide for 5 seconds, after which the leaves were inserted into a small bottle. Each treatment was done in triplicate. The number of the killed insects was checked after 24 hours to calculate the mortality.

[4] = test system: Musca domestica; assay: Striking down effect on Musca domestica, liquid film contact method; format: in vivo; design: unit not given here; settings: Musca domestica adults, film from 1 ml of 0.1% liquor in acetone in 500 ml conical flask
Experimental: The striking down effect on Musca domestica was tested using Compounds 2 and 3, which are representative examples of the compound of formula (I) of the present invention, Compound 9 as a control example. Musca domestica, an in-house cultured sensitive strain, the adult insects in eclosion for 3-5 days were used, and the male and female insects are half and half. Test temperature: 26±1° C., humidity: 70±10%, test method: liquid film contact method. 1 ml of 0.1% liquor in acetone was evenly coated on a 500 ml conical flask to form a film. After the film was dry, 20˜25 adult insects were put into the flask, and the striking down time and striking down number were observed, and each treatment was done in triplicate.

[5] = test system: Mythimna separata; assay: Killing effect on Mythimna separata, dipped corn leaves fed to larvae; format: in vivo; settings: after 48 hours
Experimental: The killing effect on Mythimna separata was tested using Compounds 2 and 3, which are representative examples of the compound of formula (I) of the present invention, Compound 9, polyfluorobenzyl meta-halo pyrethrate, which has the highest insecticidal activity to Mythimna separata as a control example.
Mythimna separata: test temperature: 26±1° C., humidity: 70±10%; the corn leaves was immersed, and then were taken out after they were dipped in a liquor in dimethyl sulfoxide for 5 seconds. The liquor was dried in the shade and the corn leaves were cut away to feed larvae at the beginning of the third instar. Each treatment was done in triplicate. The number of killed insects was counted after 48 hours to calculate the mortality.

[6] = test system: Blattela germanica; assay: Striking down effect on cockroaches, liquid film contact method; format: in vivo; design: unit not given here; settings: Blattela germanica male adults, film at 54 mg/m^2, 22±1° C.
Experimental: The striking down effect on Blattela germanica was tested using Compound 2 and 3, which are representative examples of the compound of formula (I) of the present invention, Compound 9 as a control example. Blattela germanica, an in-house cultured sensitive strain, male adult insects were used. Test temperature: 22±1° C., test method: liquid film contact method. A liquor in acetone was evenly coated at the amount of 54 mg/m^2 on the inner wall of a wild mouth bottle to form a film. After the film was dry, 10 adult insects were put into each bottle, and the striking down time and striking down number were observed, and each treatment was done in triplicate.

[7] = Stability test, ultraviolet lamp irradiation, gas chromatography analysis; format: physicochemical; settings: 0.15 mmol in 50 ml cyclohexane, 500 W ultraviolet lamp, 30 min
Experimental: 0.15 mmol of the compound of Preparation Example 2 (cis-α-cyano-3-phenoxy-4-fluoro-benzyl-2,2-dimethyl-3-(2-chlorovinyl)cyclopropane carboxylate) and 0.15 mmol of the corresponding dichloride compound (cis-α-cyano-3-phenoxy-4-fluoro-benzyl-2,2-dimethyl-3-(2,2-dichlorovinyl)cyclopropane carboxylate) were added to two vessels separately, to which 50 ml of cyclohexane were added separately. They were irradiated by a 500 W ultraviolet lamp for 30 min respectively. Then to each of the vessels were added 0.15 mmol of n-hexane as an internal standard for gas chromatography analysis. […] The photodegradation rate of the former is 1.9 times of that of the latter. That is to say, if the same amounts were used, the residue of the former in the environment is lower than that of the latter.

CC1(C)C(C=CCl)C1C(=O)OC(C#N)c1ccc(F)c(Oc2ccccc2)c1 (mixture of isomers) [Compound 1, cis/trans-α-cyano-3-phenoxy-4-fluoro-benzyl-2,2-dimethyl-3-(E/Z-2-chlorovinyl)cyclopropane carboxylate]
LC50 [1]: 0.00055 µg/mL | Relative toxicity [1]: 1927

CC1(C)[C@@H](C=CCl)[C@@H]1C(=O)OC(C#N)c1ccc(F)c(Oc2ccccc2)c1 (relative stereo) [Compound 3, Trans-α-cyano-3-phenoxy-4-fluoro-benzyl-2,2-dimethyl-3-(2-chlorovinyl)cyclopropane carboxylate]
mortality at 0.5 ppm ([2]; Aphis medicaginis, 0.5 ppm, read-out: The average mortality): 0% | mortality at 1 ppm ([2]; Aphis medicaginis, 1 ppm, read-out: The average mortality): 66.3% | mortality at 5 ppm ([2]; Aphis medicaginis, 5 ppm, read-out: The average mortality): 83.7% | mortality at 50 ppm ([2]; Aphis medicaginis, 50 ppm, read-out: The average mortality): 100% | mortality at 500 ppm ([2]; Aphis medicaginis, 500 ppm, read-out: The average mortality): 100% | The average mortality ([3]; 1 mg/L): 0% | The average mortality ([3]; 5 mg/L): 0% | The average mortality ([3]; 50 mg/L): 7.8% | The average mortality ([3]; 500 mg/L): 100% | KT50 [4]: 5.80 | mortality at 0.5 ppm ([5]; 0.5 ppm, read-out: The average mortality): 0% | mortality at 1 ppm ([5]; 1 ppm, read-out: The average mortality): 0% | mortality at 5 ppm ([5]; 5 ppm, read-out: The average mortality): 100% | mortality at 50 ppm ([5]; 50 ppm, read-out: The average mortality): 100% | mortality at 500 ppm ([5]; 500 ppm, read-out: The average mortality): 100% | KT50 [6]: 8.14 | LC50 ([1]; read-out: LC50): 0.0055 µg/mL (≈ 0.0138 µM) | Relative toxicity [1]: 193

CC1(C)[C@H](/C=C/F)[C@@H]1C(=O)OC(C#N)c1ccc(F)c(Oc2ccccc2)c1 (relative stereo) [Compound 5, cis-α-cyano-3-phenoxy-4-fluoro-benzyl-2,2-dimethyl-3-(E-2-fluorovinyl)cyclopropane carboxylate]
LC50 ([1]; read-out: LC50): 0.00061 µg/mL (≈ 0.00159 µM) | Relative toxicity [1]: 1740

CC1(C)[C@H](/C=C/Cl)[C@@H]1C(=O)OCc1c(F)c(F)cc(F)c1F (relative stereo) [Compound 6, cis-2,3,5,6-tetrafluoro-4-benzyl-3-(E-2-chlorovinyl)-2,2-dimethylcyclopropane carboxylate]
LC50 [1]: 0.4810 µg/mL (≈ 1.43 µM) | Relative toxicity [1]: 2

Cc1c(F)c(F)c(COC(=O)[C@H]2[C@@H](/C=C/Cl)C2(C)C)c(F)c1F (relative stereo) [Compound 7, cis-2,3,5,6-tetrafluoro-4-methyl benzyl-3-(E-2-chlorovinyl)-2,2-dimethylcyclopropane carboxylate]
LC50 [1]: 0.0741 µg/mL (≈ 0.211 µM) | Relative toxicity [1]: 14

CC1(C)[C@H](/C=C/Cl)[C@@H]1C(=O)OCc1c(F)c(F)c(F)c(F)c1F (relative stereo) [Compound 8, cis-pentafluorobenzyl-3-(E-2-chlorovinyl)-2,2-dimethyl cyclopropane carboxylate]
LC50 [1]: 0.0801 µg/mL (≈ 0.226 µM) | Relative toxicity [1]: 13

CC1(C)[C@@H](C=CCl)[C@@H]1C(=O)OCc1c(F)c(F)cc(F)c1F (relative stereo) [Compound 9, trans-2,3,5,6-tetrafluoro-4-benzyl-3-(2-chlorovinyl)-2,2-dimethylcyclopropane carboxylat, reference compound]
The average mortality ([2]; 0.5 ppm): 0% | The average mortality ([2]; 1 ppm): 0% | The average mortality ([2]; 5 ppm): 0% | The average mortality ([2]; 50 ppm): 18.8% | The average mortality ([2]; 500 ppm): 100% | The average mortality ([3]; 1 mg/L): 0% | The average mortality ([3]; 5 mg/L): 0% | The average mortality ([3]; 50 mg/L): 0% | The average mortality ([3]; 500 mg/L): 0% | KT50 [4]: 9.51 | The average mortality ([5]; 0.5 ppm): 0% | The average mortality ([5]; 1 ppm): 0% | The average mortality ([5]; 5 ppm): 0% | The average mortality ([5]; 50 ppm): 100% | The average mortality ([5]; 500 ppm): 100% | KT50 [6]: 12.0 | LC50 [1]: 0.2492 µg/mL (≈ 0.74 µM) | Relative toxicity [1]: 4

Cc1c(F)c(F)c(COC(=O)[C@H]2[C@H](C=CCl)C2(C)C)c(F)c1F (relative stereo) [Compound 10, trans-2,3,5,6-tetrafluoro-4-methylbenzyl-3-(2-chlorovinyl)-2,2-dimethylcyclopropane carboxylate]
LC50 ([1]; read-out: LC50): 0.0578 µg/mL (≈ 0.165 µM) | Relative toxicity [1]: 18

CC1(C)[C@@H](C=CCl)[C@@H]1C(=O)OCc1c(F)c(F)c(F)c(F)c1F (relative stereo) [Compound 11, trans-pentafluorobenzyl-3-(2-chlorovinyl)-2,2-dimethyl cyclopropane carboxylate]
LC50 [1]: 0.2041 µg/mL (≈ 0.575 µM) | Relative toxicity [1]: 5

CC1(C)[C@H](C=CBr)[C@@H]1C(=O)OC(C#N)c1cccc(Oc2ccccc2)c1 (relative stereo) [Compound 12, cis-α-cyano-3-phenoxybenzyl-2,2-dimethyl-3-(2-bromovinyl)cyclopropane carboxylate]
LC50 ([1]; read-out: LC50): 0.0108 µg/mL (≈ 0.0253 µM) | Relative toxicity [1]: 98

CC1(C)[C@@H](C=CCl)[C@@H]1C(=O)OC(C#N)c1cccc(Oc2ccccc2)c1 (relative stereo) [Compound 13, trans-α-cyano-3-phenoxybenzyl-2,2-dimethyl-3-(2-chlorovinyl)cyclopropane carboxylate]
LC50 ([1]; read-out: LC50): 0.0527 µg/mL (≈ 0.138 µM) | Relative toxicity [1]: 20

CC1(C)[C@H](C=C(Cl)Cl)[C@@H]1C(=O)OC(C#N)c1ccc(F)c(Oc2ccccc2)c1 (relative stereo) [corresponding dichloride compound, cis-α-cyano-3-phenoxy-4-fluoro-benzyl-2,2-dimethyl-3-(2,2-dichlorovinyl)cyclopropane carboxylate, reference compound]
degraded by light [7]: 14%

CC1(C)[C@H](C=CBr)[C@H]1C(=O)OC(C#N)c1ccc(F)c(Oc2ccccc2)c1 (stereo partly drawn) [Compound 4, (1R)-Trans-α-cyano-3-phenoxy-4-fluoro-benzyl-2,2-dimethyl-3-(2-bromovinyl)cyclopropane carboxylate]
LC50 ([1]; read-out: LC50): 0.0027 µg/mL (≈ 0.00608 µM) | Relative toxicity [1]: 393

CC1(C)C(C=C(Cl)Cl)C1C(=O)OC(C#N)c1cccc(Oc2ccccc2)c1 (stereo not shown) [Cypermethrin]
LC50 ([1]; read-out: LC50): 0.0106 µg/mL (≈ 0.0255 µM) | Relative toxicity [1]: 100

CC1(C)[C@H](C(=O)O[C@H](C#N)c2cccc(Oc3ccccc3)c2)[C@@H]1C=C(Br)Br [Deltamethrin]
LC50 ([1]; read-out: LC50): 0.0012 µg/mL (≈ 0.00238 µM) | Relative toxicity [1]: 883

Source: patent US8202904B2, “α-cyano-4-fluoro-3-phenoxybenzyl meta-halo pyrethrate, a process for preparing the same and the uses thereof” (East China Normal University, priority 2007, dated 2012)
